Test results reported in article PMC4142139 (European Journal of Drug Metabolism and Pharmacokinetics, 2014).
Numbering of substitutions follows the chain as printed. Numbers in names are those of the source.

T1: OATP1B1*1a (Homo sapiens, UniProt Q9Y6L6)
T1 sequence (Q9Y6L6 1-691): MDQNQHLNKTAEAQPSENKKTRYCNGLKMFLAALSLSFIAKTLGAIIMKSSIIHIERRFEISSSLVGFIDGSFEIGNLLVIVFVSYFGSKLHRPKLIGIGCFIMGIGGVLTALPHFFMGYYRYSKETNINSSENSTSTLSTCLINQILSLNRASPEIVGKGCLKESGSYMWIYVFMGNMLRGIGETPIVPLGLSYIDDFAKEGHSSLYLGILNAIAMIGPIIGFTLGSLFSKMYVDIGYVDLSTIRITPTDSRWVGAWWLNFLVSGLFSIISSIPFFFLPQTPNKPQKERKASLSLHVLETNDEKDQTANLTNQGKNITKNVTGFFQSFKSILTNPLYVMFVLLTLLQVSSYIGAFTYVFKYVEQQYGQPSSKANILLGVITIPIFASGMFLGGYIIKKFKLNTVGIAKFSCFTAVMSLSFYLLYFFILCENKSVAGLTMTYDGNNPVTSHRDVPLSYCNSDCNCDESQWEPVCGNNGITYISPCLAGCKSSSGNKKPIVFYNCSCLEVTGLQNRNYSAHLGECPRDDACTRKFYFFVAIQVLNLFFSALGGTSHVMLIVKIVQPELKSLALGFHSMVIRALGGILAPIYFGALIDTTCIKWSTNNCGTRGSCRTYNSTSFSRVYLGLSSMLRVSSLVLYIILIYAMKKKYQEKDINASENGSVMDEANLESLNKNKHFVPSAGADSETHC

T2: OATP1B1*5 (Homo sapiens, UniProt Q9Y6L6, V174A)
T2 sequence (Q9Y6L6 1-691 V174A): T1 sequence (Q9Y6L6 1-691) with V174A

B1: OATP1B1*1a (Homo sapiens) (protein)
chain: T1 sequence (Q9Y6L6 1-691)
B2: OATP1B1*5 (Homo sapiens; V174A) (protein)
chain: T1 sequence (Q9Y6L6 1-691) with V174A

Assays:
[1] = molecular target: T1, OATP1B1*1a; test: inhibition of rosuvastatin uptake in OATP1B1*1a-HEK293T cells, LC/MS; assay type: cell-based
[2] = molecular target: T2, OATP1B1*5; test: inhibition of rosuvastatin uptake in OATP1B1*5-HEK293T cells, LC/MS; assay type: cell-based
[3] = substrate: CC(C)c1nc(N(C)S(C)(=O)=O)nc(-c2ccc(F)cc2)c1/C=C/[C@@H](O)C[C@@H](O)CC(=O)O; test: concentration-dependent uptake kinetics; assay type: cell-based, Homo sapiens

| Molecule | IC50 [1] [µM] | IC50 [2] [µM] | Km [3] [µM] |
| --- | --- | --- | --- |
| C[C@H]1[C@H](C)CC[C@]2(C(=O)O)CC[C@]3(C)C(=CC[C@@H]4[C@@]5(C)CC[C@H](O)C(C)(C)[C@@H]5CC[C@]43C)[C@H]12 [UA, 3b-hydroxy-urs-12-en-28-oic-acid] | 6.25 ± 0.42 | 6.07 ± 0.57 |  |
| B1 |  |  | 19.87 ± 5.96 |
| B2 |  |  | 10.05 ± 4.02 |
